Results as given in patent US20150005236A1, “USE OF BETA-NERVE GROWTH FACTOR FOR INDUCING OVULATION IN MAMMALS” (INSTITUT NATIONAL DE LA RECHERCHE AGRONOMIQUE, priority 2012, published 2015).
Several values for one entry are separate records, joined by “and”; a condition that tells them apart may be missing. Identical values can stand only once. Marks after values point to notes of the source that are not given here.

Columns and labels:
female rabbits = test: Induction of ovulation in female rabbits; format: in vivo, rabbit; conditions: for Ovulation (%): ovulation frequency, i.m. injection
Procedure: A herd of 83 female rabbits of proven fertility was used in this experiment.
The female rabbits were synchronized by an injection of eGG 48 hours before insemination. Then they were inseminated with a mixture of semen from several males. The same mixture was used for all females.
The female rabbits were killed 48 hours after insemination. The ovaries were collected to proceed to counting the corpora lutea, pre-ovulatory follicles of diameter higher than 1 mm and atretic follicles, and to identify potential pseudopregnant females. The oviducts were infused in order to count oocytes and embryos and to evaluate the developmental stage of the latter (number of blastomeres of the embryo).
The results were analysed with the software SAS using a fixed-effects variance analysis, taking into account the fixed effect of the treatment (4 levels: GnRH, β-NGF, PS and saline).

female alpacas [1] = test: Induction of ovulation in alpacas (transrectal ultrasonography, plasma progesterone RIA); format: in vivo, alpaca; conditions: for CL diameter: corpus luteum on day 8 following i.m. treatment; for CL diameter / Progesterone conc.: mean ± sem; for corpus lutea detected, % of alpacas: day 8 following treatment; for corpus lutea detected, % of alpacas / dominant follicle absent, % of female alpacas: n=5/group; for Progesterone conc.: plasma, day 8 following i.m. treatment, animals that did not ovulate excluded; for dominant follicle absent, % of female alpacas: ultrasonography 28-30 h following treatment
Procedure: The emergence of dominant follicles was synchronised with the 0.8 ml (200 μg) prostaglandin F2α (Estrumate®, Intervet) i.m. followed by 1 ml (4 μg) of Buserelin (Receptal®, Intervet) i.m. 24 h later, then luteolysis was induced 11 days after induced ovulation with 0.8 ml Estrumate®.
To determine the presence of a dominant follicle, females were restrained in sternal recumbency and examined by transrectal ultrasonography using an Aloka SSD-500 scanner with 7.5 MHz linear array transducer (Aloka Co., Japan). The ovaries of […] were scanned. Females with a newly emerged dominant follicle of 6-10 mm in diameter were randomly assigned to receive 1 of 4 treatments: (1) 1 ml 0.9% saline in, (n 5), (2) 1 ml (4 μg) Receptal® (Intervet) i.m (n=5), (3) 2 ml alpaca's seminal plasma i.m. collected as described above for Experiment ˜1 (n=5), (4) 1 mg recombinant active human β-NGF protein (Sino Biological, Japan) Lm. (n=5).
Animals were examined by transrectal ultrasonography 28-30 h following treatments to detect ovulation. Ovulation was defined as the absence of the dominant follicle that was observed during the previous scan at the time of treatment. Ultrasonography was also repeated 8 days following treatment, to confirm ovulation and determine the size of the corpus luteum.
(§1) Female alpacas were cannulated and jugular venous blood samples (5 ml) were collected for detection of luteinising hormone immediately before treatment, every 30 min for 4 h, then every 1 h for 4 h and finally at 12 h post-treatment. Jugular venous blood samples (5 ml) were also collected on day 8 at the time of ultrasonography for detection of plasma progesterone. Samples were placed in heparinised tubes, centrifuged at 2000×g for 10 min, the plasma decanted and stored at −20° C. until analysis.
(§2) Plasma LH concentration were determined using a RIA. Plasma progesterone concentrations were determined using a commercial double antibody RIA kit (Coat-a-Count).
International, Hemel Hempstead, UK) with post-hoc comparisons using the least significant difference (LSD) test where appropriate. Far all analyses P<0.05 was considered significant.
In this experiment, female alpacas (n 5/group) were administered i.m. with (1) 1 ml 0.9% saline, (2) 1 ml of the GnRH agonist Receptal® (3) 2 ml alpaca seminal plasma, or (4) 1 mg human β-NGF. Ovulation was detected by transrectal ultrasonography […] following treatment and confirmed by plasma progesterone concentrations.

female alpacas [2] = test: LH concentration in peripheral blood of female alpacas (RIA); format: in vivo, alpaca; conditions: for LH concentration in peripheral blood: 12 hours after i.m. injection, versus saline; for peak of LH, time after injection: i.m. injection, peripheral blood
Procedure: as §1, §2
The evolution of the concentration of LH in peripheral blood was assessed for 12 hours after the injections.

mouse GnRH neurons = test: Calcium imaging of primary culture of GnRH neurons; format: cell-based
Source text: A model of primary culture of GnRH neurons has been developed from explants of olfactory placodes of mouse embryos (Constantin et al., 2009). This model has three stages of in vitro development: from 1 to 3 days, intra-explant migration, corresponding to an in vivo intranasal migration; from 3 to […] days, out-of explant migration, corresponding to an in vivo intracerebral development; from 7 to 15 days, occurrence of the pulsatile secretion, corresponding to neuronal and network maturation.
This experiment was carried out between 7 and 15 days of in vitro development corresponding to a stage of mature GnRH neurons having a pulsatile GnRH secretion.
Embryos were obtained from timed pregnant animals. Nasal pits of embryonic d 11.5 staged Swiss mice were isolated under aseptic conditions and refrigerated for 1 h in Gey's balanced salt solution (Eurobio, Les Ulis, France) enriched with glucose (Sigma-Aldrich Corp., St. Louis, Mo.). Nasal explants were adhered onto coverslips by a chicken plasma (local source)/thrombin (Sigma-Aldrich) clot. […]
These variations were measured by “time lapse” imaging in the primary culture of GnRH neurons. A quantitative analysis was carried out for single neurons but also overall for a group of neurons constituting part of the network. […]
Calcium Green-1 was visualized using an inverted microscope (DM-IRB; Leica. Microsystems GmbH, Wetzlar, Germany), through a ×20 fluorescence objective, and acquired using a cooled intensified charge-coupled device camera (CoolSNAP fx; Rapper Instruments, Photometrics, Tucson, Ariz.). Experiments were piloted by Metafluor (Molecular Devices, Downingtown, Pa.), controlling the shutter and the acquisition (every 20 sec for 3 h), Excitation wavelengths were provided through a medium-width excitation bandpass filter at 465-495 nm, and emission was monitored through a 40-nm bandpass centered on 535 nm. Fluctuations in [Ca2+]i were analyzed a posteriori with Metafluor software. […] Calcium Green-1 fluorescence intensity was plotted and analyzed with Excel (Microsoft Corp., Redmond, Wash.). […]

[3] = test system: glial cells associated with GnRH neurons; test: Immunohistochemistry of the relations between GnRH neurons and glial cells; format: cell-based, mouse; conditions: 20 min application at 75 nM, then K+ stimulation; not in control conditions
Procedure: An immunohistochemical approach was used to characterize the cells present in the culture, using anti-GnRH antibody for the GnRH neurons, anti-S100b antibody for the glial cells and anti-P75 antibody (P75 is a NGF-specific receptor). The analysis was carried out by confocale microscopy.
Nasal explants were fixed in 4% formaldehyde [45-60 min, rinsed in PBS (3×10 min)], blocked (1 h, 10% normal goat serum, 0.3% Triton X-100, and 0.1% sodium azide), rinsed in PBS (3×8 min), and incubated overnight in anti-GnRH-1 (1:3000, SW-1). Antibodies were diluted in PBS containing 10% normal goat serum, 0.3% Triton X-100, and 0.1% sodium azide. The next day, the explants were rinsed in PBS (3×8 min), incubated in secondary antibody ant rabbit Alexa 546 (1:500, 1 h; Molecular Probes, Inc., Eugene Oreg.) and rinsed in PBS (4×8 min). Explants incubated with fluorescent dies were mounted with Vector Shield (Vector Laboratories).
The relations between GnRH neurons and glial cells have been analyzed by immunohistochemistry after 20 min of recording in calcic imaging, for the control and after 20 min of application of β-NGF at 75 nM in the culture medium, and after K^+ stimulation. The glial cells retract after K^+ stimulation in the presence of β-NGF, but not in control conditions.

[4] = 48 hours after insemination, estimated mean values

Compound | Collected embryos (female rabbits; [4]) | Corpora lutea (number by injected female rabbit) (female rabbits; [4]) | Haemorrhagic follicles (female rabbits; [4]) | Ovulation (%) (female rabbits) | CL diameter (female alpacas [1]) | corpus lutea detected, % of alpacas (female alpacas [1]) | Progesterone conc. (female alpacas [1]) | dominant follicle absent, % of female alpacas (female alpacas [1]) | LH concentration in peripheral blood (female alpacas [2]) | peak of LH, time after injection (female alpacas [2]) | percent of synchronization events involving more than 70% of the recorded GnRH neurons (mouse GnRH neurons; 75 nM in the culture medium) | synchronization of calcic events between GnRH neurons (mouse GnRH neurons; 20 min after application at 75 nM) | fold decrease in average time between two calcium events (mouse GnRH neurons; 20 min after application at 75 nM in the culture medium, versus control (about 15 s)) | time to LH surge after treatment (female alpacas [2]; 1 mg i.m.) | glial cells after K+ stimulation [3]
GnRH: 0.2 ml of Fertagyl® containing 20 μg of GnRH (Gonadotrophine Releasing Hormone), positive control (QHWSYGLRPG; Gonadoliberin-1; UniProt P01148 24-33, looked up) | 12.09^a | 13.82^a | 1.36^a | 100% and 100^a % |  |  |  |  |  |  |  |  |  |  | 
CCNC(=O)[C@@H]1CCCN1C(=O)[C@H](CCCNC(=N)N)NC(=O)[C@H](CC(C)C)NC(=O)[C@@H](COC(C)(C)C)NC(=O)[C@H](Cc1ccc(O)cc1)NC(=O)[C@H](CO)NC(=O)[C@H](Cc1c[nH]c2ccccc12)NC(=O)[C@H](Cc1cnc[nH]1)NC(=O)[C@@H]1CCC(=O)N1 [Receptal, Buserelin, reference compound] |  |  |  |  | 9.3 ± 1.49^a mm | 80% | 4.01 ± 0.897^b ng/ml | 80% | significant increase | 3 h |  |  |  |  | 
beta-Nerve Growth Factor [β-NGF] |  |  |  | 25% and 25.0^b % | 10.3 ± 1.03^a mm | 80% | 3.28 ± 0.681^b ng/ml | 80% | significant increase | 3 h | increase | increased | 3 | ≤ 8 h | retract
